Series [1] deals with histone deacetylase (HeLa nuclear extracts). Kind of series: In vitro assay for inhibition of histone deacetylase (Fluor de Lys, HeLa nuclear extracts). In kind it is biochemical. Also on record: key: pIC50 = negative log of IC50. The settings on record: Fluor de Lys substrate. The text has this: The HDAC Fluorescent Activity Assay/Drug Discovery Kit of Biomol (cat. No: AK-500-0001) was used. The HDAC Fluorescent Activity Assay is based on the Fluor de Lys (Fluorogenic Histone deAcetylase Lysyl) substrate and developer combination. The Fluor de Lys substrate, comprises an acetylated lysine side chain. Deacetylation of the substrate sensitizes the substrate so that, in the second step, treatment with the Fluor de Lys developer produces a fluorophore.
HeLa nuclear extracts (supplier: Biomol) were incubated at 60 μg/ml with 75 μM of substrate. The Fluor de Lys substrate was added in a buffer containing 25 mM Tris, 137 mM NaCl, 2.7 mM KCl and 1 mM MgCl2.6H2O at pH 7.4. After 30 min, 1 volume of the developer was added. The fluorophore was excited with 355 nm light and the emitted light (450 nm) was be detected on a fluorometric plate reader.
For each experiment, controls (containing HeLa nuclear extract and buffer), a blank incubation (containing buffer but no HeLa nuclear extract) and samples (containing compound dissolved in DMSO and further diluted in buffer and HeLa nuclear extract) were run in parallel. In first instance, compounds were tested at a concentration of 10^−5M. […] All sample were tested 4 times. In each test the blank value was subtracted from both the control and the sample values. The control sample represented 100% of substrate deactylation. For each sample the fluorescence was expressed as a percentage of the mean value of the controls. […] Herein the effects of test compounds are expressed as pIC50 (the negative log value of the IC50-value) (see Table F-2).

Series [2] can be described thus: Kinetic solubility in aqueous media C.3.a (nephelometer). In kind it is physicochemical. The settings on record: aqueous buffer, kinetic from dmso stock; phosphate citrate buffer pH 7.4, turbidity score. As to the method: In the first dilution step, 10 μl of a concentrated stock-solution of the active compound, solubilized in DMSO (5 mM), was added to 100 μl phosphate citrate buffer pH 7.4 and mixed. In the second dilution step, an aliquot (20 μl) of the first dilution step was further dispensed in 100 μl phosphate citrate buffer pH 7.4 and mixed. Finally, in the third dilution step, a sample (20 μl) of the second dilution step was further diluted in 100 μl phosphate citrate buffer pH 7.4 and mixed. All dilutions were performed in 96-well plates. Immediately after the last dilution step the turbidity of the three consecutive dilution steps were measured with a nephelometer. Dilution was done in triplicate for each compound to exclude occasional errors. Based on the turbidity measurements a ranking is performed into 3 classes. Compounds with high solubility obtained a score of 3 and for this compounds the first dilution is clear. Compounds with medium solubility obtained a score of 2. For these compounds the first dilution is unclear and the second dilution is clear.

Series [3] concerns A2780 ovarian carcinoma cells. Kind of series: Antiproliferative activity on A2780 cells (MTT). In kind it is cell-based, human. The settings on record: four days of incubation; for IC50: Homo sapiens, A2780, 96 h, read-out: Cellular activity pIC50 C.2. (converted). As to the method:
All compounds tested were dissolved in DMSO and further dilutions were made in culture medium. Final DMSO concentrations never exceeded 0.1% (v/v) in cell proliferation assays. Controls contained A2780 cells and DMSO without compound and blanks contained DMSO but no cells. MTT was dissolved at 5 mg/ml in PBS. A glycine buffer comprised of 0.1 M glycine and 0.1 M NaCl buffered to pH 10.5 with NaOH (1 N) was prepared (all reagents were from Merck).
The human A2780 ovarian carcinoma cells (a kind gift from Dr. T. C. Hamilton [Fox Chase Cancer Centre, Pa., USA]) were cultured in RPMI 1640 medium supplemented with 2 mM L-glutamine, 50 μg/ml gentamicin and 10% fetal calf serum. Cells were routinely kept as monolayer cultures at 37° C. in a humidified 5% CO2 atmosphere. Cells were passaged once a week using a trypsin/EDTA solution at a split ratio of 1:40. All media and supplements were obtained from Life Technologies. Cells were free of mycoplasma contamination as determined using the Gen-Probe Mycoplasma Tissue Culture kit (supplier: BioMérieux).
Cells were seeded in NUNC™ 96-well culture plates (Supplier: Life Technologies) and allowed to adhere to the plastic overnight. Densities used for plating were 1500 cells per well in a total volume of 200 μl medium. After cell adhesion to the plates, medium was changed and drugs and/or solvents were added to a final volume of 200 μl. Following four days of incubation, medium was replaced by 200 μl fresh medium and cell density and viability was assessed using an MTT-based assay. To each well, 25 μl MTT solution was added and the cells were further incubated for 2 hours at 37° C. The medium was then carefully aspirated and the blue MTT-formazan product was solubilized by addition of 25 μl glycine buffer followed by 100 μl of DMSO. […] Within an experiment, the results for each experimental condition are the mean of 3 replicate wells. For initial screening purposes, compounds were tested at a single fixed concentration of 10^−6 M. For active compounds, the experiments were repeated to establish full concentration-response curves. For each experiment, controls (containing no drug) and a blank incubation (containing no cells or drugs) were run in parallel. The blank value was subtracted from all control and sample values. For each sample, the mean value for cell growth (in absorbance units) was expressed as a percentage of the mean value for cell growth of the control. […] Herein the effects of test compounds are expressed as pIC50 (the negative log value of the IC50-value) (see Table F-2).

A short description of series [4]: Kinetic solubility in aqueous media C.3.b (BD Gentest Solubility Scanner). In kind it is physicochemical. Conditions: aqueous buffer. As to the method: DMSO-stock solutions from 5000-9.8 μM (1/2 dilutions) are made in DMSO in a 96 well stock solution plate (200 μl per well). After each dilution the samples are mixed. Aliquots of these DMSO solutions (2 μl) are then transferred into 2 other 96 well buffer plates, containing 200 μl per well aqueous buffer. Each of the buffer plates contains either aqueous buffer pH 7.4 or aqueous buffer pH 4.0. After the last dilution the buffer plates are mixed and the samples are stabilized at room temperature for ½ hour. Dilution is done in duplicate for each compound to exclude occasional errors. Mixtures are then scanned in the BD Gentest Solubility Scanner for the occurrence of precipitation. Based on the absence/presence of precipitate in the mixtures the kinetic solubility is calculated by interpolation. Ranking is performed into the 3 classes. […] (see Table F-2).

Series [5] is described as follows: Solubility C.3.c (chemiluminescent nitrogen detector). The format is physicochemical. The settings on record: aqueous buffer; pH = 2.3; read-out: Solubility C.3.c. pH = 2.3 mg/ml. The source says:
The solubility of a compound, at different pH's, can also be measured with the use of a chemiluminescent nitrogen detector (see Table F-2).

The test system of series [6] is p21 promoter reporter A2780 clone tumour. The series is described as follows: p21 induction in vivo method C.6.c (tumour fluorescence in nude mice). Conditions: dosed orally or intravenously daily during 6 days, 20-40 mpk. As to the method: Another method tests the capacity of compounds to induce p21 as the consequence of HDAC inhibition at the cellular level. […] The reporter gene is a fluorescent protein and the expression of the reporter gene is measured as the amount of fluorescent light emitted (see example C.6.b.). The last method is an in vivo method wherein mice are used for screening the pharmaceutical activity of a compound. The above described stably transformed tumour cells can be administered to mice in an amount sufficient to effect production of a tumour. After the tumour cells had sufficient time to form a tumour, a potentially active compound can be administered to the animals and the effect of said compound on the tumour cells is evaluated by measuring the expression of the reporter gene. Incubation with pharmaceutical active compounds will result in an increase of reporter gene expression compared to the control levels (see example C.6.c.)
A selected clone was injected subcutaneous (10^7 cells/200 μl) into the flank of nude mice and a calliper measurable tumour was obtained after 12 days. […] Tumours were evaluated for fluorescence by the in-house developed Automated Whole Body Imaging System (Fluorescent stereomicroscope type Olympus® SZX12 equipped with a GFP filter and coupled to a CCD camera type JAI® CV-M90 controlled by a software package based on the IMAQ Vision Software from National Instruments®).

Assay in series [7]: not given
This is another data set of the same source.

Where [8] appears, read: kinetic from dmso stock, pH = 4, score, read-out: Solubility C.3.b pH = 4.
Where [9] appears, read: pH 7.4, kinetic from dmso stock, pH = 7, score, read-out: Solubility C.3.b. pH = 7.

Values after ≈ are worked out from the molar mass of the structure shown. Read-outs that look alike come from different tables or passages of the source.

`CC(C)(C)c1ccc(C(C(O)CO)N2CCN(c3ncc(C(=O)NO)cn3)CC2)cc1` (stereo not drawn) [Compound 10]: the “Enzymatic activity pIC50 C.1.” value in series [1] is 7.0. This compound gave a solubility in series [2] greater than 455 µM. Further, the “Cellular activity pIC50 C.2.” value in series [3] came out at 7.1.
One may read the melting point as the temperature of the solid-liquid transition. The compound `O=C(NO)c1cnc(N2CCN(C(CO)c3cn(S(=O)(=O)c4ccccc4)c4ccccc34)CC2)nc1` (stereo not drawn) [Compound 3] came in with a melting point of 206 °C. Further, the solubility at 0.5 h in series [4] (setting [8]) lay in the range of 10 to 50 µM (≈ 5.23 to 26.1 µg/mL). Besides, the solubility at 0.5 h in series [4] (setting [9]) was in the range of 10 to 50 µM (≈ 5.23 to 26.1 µg/mL). For the same compound, in series [1], the “Enzymatic activity pIC50 C.1.” value was greater than 9. The IC50 in series [3] is less than 31.6 nM.
With `O=C(NO)c1cnc(N2CCN(C(CO)c3cc4ccccc4o3)CC2)nc1` (stereo not drawn) [Compound 8], the solubility at 0.5 h in series [4] (setting [8]) and in series [4] (setting [9]) was 10 to 50 µM (≈ 3.83 to 19.2 µg/mL) in each case. Besides, the “Enzymatic activity pIC50 C.1.” value in series [1] amounted to 9.0. The solubility in series [5] was found to be 2200 µg/mL (≈ 5.74 mM). For the same compound, in series [3], the IC50 was 31.6 nM.
As to `CC(C)(C)c1ccc([C@H]([C@H](O)CO)N2CCN(c3ncc(C(=O)NO)cn3)CC2)cc1` [Compound 6], the melting point is 163 to 171 °C. Further, the “Enzymatic activity pIC50 C.1.” value in series [1] stood at 7.9. Also, the “tumour fluorescence (p21 reporter) in vivo” value in series [6] is reported as “comparable to R306465”. Moreover, the solubility in series [5] stood at 900 µg/mL (≈ 2.1 mM). The compound also had a solubility in series [2] greater than 455 µM. Besides, the IC50 in series [3] is 39.8 nM.
`O=C(NO)c1cnc(N2CCN(C(CO)c3cccc4ccccc34)CC2)nc1` (stereo not drawn) [Compound 1]: the melting point stood at 136 °C. The solubility at 0.5 h in series [4] (setting [8]) was 10 to 50 µM (≈ 3.93 to 19.7 µg/mL). Also, the solubility at 0.5 h in series [4] (setting [9]) is 10 to 50 µM (≈ 3.93 to 19.7 µg/mL). Besides, in series [1], the “Enzymatic activity pIC50 C.1.” value is reported as 10.0. Further, the solubility in series [5] was found to be 2900 µg/mL (≈ 7.37 mM). In addition, the IC50 in series [3] was 100 nM.
`CCN(CC1CCN(c2ncc(C(=O)NO)cn2)CC1)C(CO)c1cc2ccccc2o1` (stereo not drawn) [Compound 4] came in with a melting point of 90 °C. For the same compound, the solubility at 0.5 h in series [4] (setting [8]) is no more than 10 µM. Moreover, the solubility at 0.5 h in series [4] (setting [9]) lay within 10 to 50 µM (≈ 4.4 to 22 µg/mL). Further, the “Enzymatic activity pIC50 C.1.” value in series [1] is listed as 7.9. Moreover, the IC50 in series [3] was 251 nM.
Regarding `O=C(NO)c1cnc(N2CCN(C(CO)c3ccc4ccccc4c3)CC2)nc1` (stereo not drawn) [Compound 7], the solubility at 0.5 h in series [4] (setting [8]) and in series [4] (setting [9]) was no more than 10 µM each time. Besides, the “Enzymatic activity pIC50 C.1.” value in series [1] is on record as 9.7. Moreover, the IC50 in series [3] was 20 nM.
For the compound `COc1cc(N)c(Cl)cc1C(=O)NC1CCN(CCCOc2ccc(F)cc2)CC1OC` (stereo not drawn) [Cisapride], the “% metabolism” value in series [7] (human, 15 min, 5 μM) is on record as 45%.
As to `CCCO` [propanol], in series [7] (after 15 min of incubation with active microsomes, compound 5 μM), the “% metabolism” value was 25%.
In the case of `O=C(NO)c1cnc(N2CCN(C(CO)c3cc4ccccc4s3)CC2)nc1` (stereo not drawn) [Compound 2], the melting point is 165 °C. For the same compound, the solubility at 0.5 h in series [4] (setting [8]) was no more than 10 µM. Also, in series [4] (setting [9]), the solubility at 0.5 h is 10 to 50 µM (≈ 3.99 to 20 µg/mL). Besides, in series [1], the “Enzymatic activity pIC50 C.1.” value amounted to 10.1. In addition, in series [5], the solubility came to 3250 µg/mL (≈ 8.14 mM). In addition, the IC50 in series [3] was 15.8 nM.
As for `O=C(NO)c1cnc(N2CCN(C(CO)c3csc4ccccc34)CC2)nc1` (stereo not drawn) [Compound 9], the “Enzymatic activity pIC50 C.1.” value in series [1] was 9.8. In series [3], the IC50 was 50.1 nM.
Take `CC(C)(C)c1ccc(C(C(O)CO)N2CCN(c3ncc(C(=O)NO)cn3)CC2)cc1` (stereo not drawn) [Compound 5]: the melting point was 138 to 154 °C. The “Enzymatic activity pIC50 C.1.” value in series [1] turned out to be 7.5. Moreover, the solubility in series [5] came to 1390 µg/mL (≈ 3.24 mM). For the same compound, the IC50 in series [3] was 100 nM.
